Assay results taken from article PMC10175918 (Communications Biology, 2023).
Where two headings read alike, the source gives them in different places.

Experiments:
Assay in all cases: TGFα-shedding assay-based GPCR screening with chimeric Gα subunit proteins
Type in all cases: cell-based
348 GPCRs [1] = molecular target: T1, 348 GPCRs (Homo sapiens, UniProt O43603); conditions: 10µM, Favipiravir 100μM
T1 construct: expressed in transfected cells; host or cells: HEK293A
T1 sequence (O43603 1-387): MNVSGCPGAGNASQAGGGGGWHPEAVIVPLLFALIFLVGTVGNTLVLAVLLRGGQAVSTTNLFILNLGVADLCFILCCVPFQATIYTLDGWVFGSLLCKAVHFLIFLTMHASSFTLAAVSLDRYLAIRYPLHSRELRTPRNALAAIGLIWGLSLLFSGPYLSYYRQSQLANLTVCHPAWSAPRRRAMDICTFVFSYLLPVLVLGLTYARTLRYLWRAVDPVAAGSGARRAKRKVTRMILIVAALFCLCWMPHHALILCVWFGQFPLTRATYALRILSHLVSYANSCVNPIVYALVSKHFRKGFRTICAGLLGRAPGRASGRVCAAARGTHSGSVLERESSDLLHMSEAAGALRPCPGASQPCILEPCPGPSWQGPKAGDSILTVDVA

348 GPCRs [2] = molecular target: T2, 348 GPCRs (Homo sapiens, UniProt O95800); conditions: 10µM, Favipiravir 100μM
T2 construct: expressed in transfected cells; host or cells: HEK293A

348 GPCRs [3] = molecular target: T3, 348 GPCRs (Homo sapiens, UniProt P48546); conditions: 10µM, Favipiravir 100μM
T3 sequence (P48546 22-466): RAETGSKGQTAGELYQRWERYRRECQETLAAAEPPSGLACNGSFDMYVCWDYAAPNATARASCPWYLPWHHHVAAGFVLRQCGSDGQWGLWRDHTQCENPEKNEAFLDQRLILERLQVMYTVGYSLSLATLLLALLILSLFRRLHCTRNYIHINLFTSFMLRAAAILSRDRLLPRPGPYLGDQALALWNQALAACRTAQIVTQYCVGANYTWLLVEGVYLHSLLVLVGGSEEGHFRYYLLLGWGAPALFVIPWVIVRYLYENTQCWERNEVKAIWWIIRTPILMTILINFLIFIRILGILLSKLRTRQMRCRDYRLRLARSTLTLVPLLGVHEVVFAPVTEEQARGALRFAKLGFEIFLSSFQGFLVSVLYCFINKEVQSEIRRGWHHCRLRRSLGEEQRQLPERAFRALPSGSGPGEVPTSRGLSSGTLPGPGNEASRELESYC

348 GPCRs [4] = molecular target: T4, 348 GPCRs (Homo sapiens, UniProt P51685); conditions: 10µM, Favipiravir 100μM
T4 construct: expressed in transfected cells; host or cells: HEK293A

348 GPCRs [5] = molecular target: T5, 348 GPCRs (Homo sapiens, UniProt Q15391)
T5 construct: expressed in transfected cells; host or cells: HEK293A
T5 sequence (Q15391 1-338): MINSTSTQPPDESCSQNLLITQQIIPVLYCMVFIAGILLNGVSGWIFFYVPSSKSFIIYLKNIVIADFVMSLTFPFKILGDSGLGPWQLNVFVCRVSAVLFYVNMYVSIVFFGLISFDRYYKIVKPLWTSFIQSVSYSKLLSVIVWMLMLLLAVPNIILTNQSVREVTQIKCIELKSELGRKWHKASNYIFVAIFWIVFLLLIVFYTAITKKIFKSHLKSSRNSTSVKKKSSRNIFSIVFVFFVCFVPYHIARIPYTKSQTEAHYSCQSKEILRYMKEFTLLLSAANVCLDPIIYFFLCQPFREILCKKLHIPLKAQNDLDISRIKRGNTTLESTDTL

348 GPCRs [6] = molecular target: T6, 348 GPCRs (Homo sapiens, UniProt Q8NFN8); conditions: 10µM, Favipiravir 100μM
T6 construct: expressed in transfected cells; host or cells: HEK293A
T6 sequence (Q8NFN8 1-814): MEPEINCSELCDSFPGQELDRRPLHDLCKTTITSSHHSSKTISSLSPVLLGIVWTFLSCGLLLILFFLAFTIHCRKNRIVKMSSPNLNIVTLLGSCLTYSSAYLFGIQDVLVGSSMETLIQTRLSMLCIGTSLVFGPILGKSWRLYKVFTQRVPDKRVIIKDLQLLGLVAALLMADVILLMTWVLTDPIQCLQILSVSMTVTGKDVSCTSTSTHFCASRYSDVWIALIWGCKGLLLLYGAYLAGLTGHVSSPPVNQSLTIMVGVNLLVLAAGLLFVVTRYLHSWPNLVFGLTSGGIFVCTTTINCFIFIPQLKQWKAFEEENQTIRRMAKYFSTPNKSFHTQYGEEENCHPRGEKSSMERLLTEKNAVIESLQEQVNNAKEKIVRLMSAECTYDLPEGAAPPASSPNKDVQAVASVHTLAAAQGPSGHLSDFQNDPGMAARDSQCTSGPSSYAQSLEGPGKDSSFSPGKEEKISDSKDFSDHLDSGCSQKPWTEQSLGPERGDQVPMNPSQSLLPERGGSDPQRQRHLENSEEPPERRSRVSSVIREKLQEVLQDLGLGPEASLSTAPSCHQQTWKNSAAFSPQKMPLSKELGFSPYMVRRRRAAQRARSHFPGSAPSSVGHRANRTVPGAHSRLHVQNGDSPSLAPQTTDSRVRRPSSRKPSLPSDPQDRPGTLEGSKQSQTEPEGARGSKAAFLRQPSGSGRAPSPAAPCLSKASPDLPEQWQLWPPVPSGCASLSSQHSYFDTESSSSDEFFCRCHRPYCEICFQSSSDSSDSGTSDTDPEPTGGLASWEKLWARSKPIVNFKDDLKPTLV

348 GPCRs [7] = molecular target: T7, 348 GPCRs (Homo sapiens, UniProt Q9GZQ4); conditions: 10µM, Favipiravir 100μM
T7 construct: expressed in transfected cells; host or cells: HEK293A

[8] = GAL2 (galanin receptor 2), read-out: % GPCR activation compared to TPA
[9] = GPR75 (G protein-coupled receptor 75), read-out: % GPCR activation compared to TPA
[10] = GIPR (gastric inhibitory polypeptide receptor), read-out: % GPCR activation compared to TPA
[11] = CCR8 (C-C motif chemokine receptor 8), read-out: % GPCR activation compared to TPA
[12] = GPCR P2Y14 (purinergic receptor P2Y, G-protein coupled, 14), read-out: % GPCR activation compared to TPA
[13] = GPR156 (G protein-coupled receptor 156), read-out: % GPCR activation compared to TPA
[14] = NMUR2 (neuromedin U receptor 2), read-out: % GPCR activation compared to TPA
[15] = read-out: % GPCR activation compared to TPA, GAL2 (galanin receptor 2)
[16] = read-out: % GPCR activation compared to TPA, GPR75 (G protein-coupled receptor 75)
[17] = read-out: % GPCR activation compared to TPA, GIPR (gastric inhibitory polypeptide receptor)
[18] = read-out: % GPCR activation compared to TPA, CCR8 (C-C motif chemokine receptor 8)
[19] = read-out: % GPCR activation compared to TPA, GPCR P2Y14 (purinergic receptor P2Y, G-protein coupled, 14)
[20] = read-out: % GPCR activation compared to TPA, GPR156 (G protein-coupled receptor 156)
[21] = read-out: % GPCR activation compared to TPA, NMUR2 (neuromedin U receptor 2)

T7 sequence (Q9GZQ4 whole entry): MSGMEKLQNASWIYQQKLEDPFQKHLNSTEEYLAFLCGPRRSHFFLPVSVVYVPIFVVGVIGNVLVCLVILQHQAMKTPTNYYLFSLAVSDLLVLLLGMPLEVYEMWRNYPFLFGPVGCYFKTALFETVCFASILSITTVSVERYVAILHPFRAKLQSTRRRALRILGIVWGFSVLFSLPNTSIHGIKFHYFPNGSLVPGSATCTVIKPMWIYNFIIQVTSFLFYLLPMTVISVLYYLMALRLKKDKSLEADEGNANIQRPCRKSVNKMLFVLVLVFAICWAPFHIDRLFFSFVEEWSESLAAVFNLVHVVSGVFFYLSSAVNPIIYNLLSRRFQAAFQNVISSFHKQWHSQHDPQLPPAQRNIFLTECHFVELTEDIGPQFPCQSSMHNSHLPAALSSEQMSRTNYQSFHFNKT
T2 sequence (O95800 whole entry): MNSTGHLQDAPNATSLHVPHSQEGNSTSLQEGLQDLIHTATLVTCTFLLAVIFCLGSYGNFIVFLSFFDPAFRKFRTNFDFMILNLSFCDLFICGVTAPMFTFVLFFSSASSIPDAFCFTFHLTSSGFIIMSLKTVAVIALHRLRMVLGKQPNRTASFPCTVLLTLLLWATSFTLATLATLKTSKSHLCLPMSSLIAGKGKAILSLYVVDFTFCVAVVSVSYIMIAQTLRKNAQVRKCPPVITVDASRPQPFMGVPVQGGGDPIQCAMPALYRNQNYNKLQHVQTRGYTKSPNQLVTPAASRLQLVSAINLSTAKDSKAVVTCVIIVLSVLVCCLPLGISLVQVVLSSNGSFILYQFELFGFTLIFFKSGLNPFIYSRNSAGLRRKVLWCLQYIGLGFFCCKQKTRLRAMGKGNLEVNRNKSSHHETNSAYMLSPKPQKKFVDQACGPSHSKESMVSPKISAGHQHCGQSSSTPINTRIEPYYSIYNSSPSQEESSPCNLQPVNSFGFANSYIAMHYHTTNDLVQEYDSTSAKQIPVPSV
T4 sequence (P51685 whole entry): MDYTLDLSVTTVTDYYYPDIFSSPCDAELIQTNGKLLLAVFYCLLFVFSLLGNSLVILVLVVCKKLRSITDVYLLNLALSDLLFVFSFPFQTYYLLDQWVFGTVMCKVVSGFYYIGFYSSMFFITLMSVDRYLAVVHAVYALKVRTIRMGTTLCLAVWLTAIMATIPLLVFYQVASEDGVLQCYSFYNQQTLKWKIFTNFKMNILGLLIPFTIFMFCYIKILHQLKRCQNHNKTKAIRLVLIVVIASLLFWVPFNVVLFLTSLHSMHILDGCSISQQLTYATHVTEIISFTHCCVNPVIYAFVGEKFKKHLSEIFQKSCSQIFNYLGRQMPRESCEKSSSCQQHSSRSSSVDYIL

activation at 100 µM (348 GPCRs [1]; [8]) [%]	activation at 10 µM (348 GPCRs [2]; [9]) [%]	activation at 10 µM (348 GPCRs [3]; [10]) [%]	activation at 10 µM (348 GPCRs [4]; [11]) [%]	activation at 10 µM (348 GPCRs [5]; [12]) [%]	activation at 10 µM (348 GPCRs [6]; [13]) [%]	activation at 10 µM (348 GPCRs [7]; [14]) [%]	activation at 100 µM (348 GPCRs [5]; GPCR P2Y14 (purinergic receptor P2Y, G-protein coupled, 14), 100μM, read-out: % GPCR activation compared to TPA) [%]	Compound	activation at 100 µM (348 GPCRs [1]; [15]) [%]	activation at 10 µM (348 GPCRs [2]; [16]) [%]	activation at 10 µM (348 GPCRs [3]; [17]) [%]	activation at 10 µM (348 GPCRs [4]; [18]) [%]	activation at 10 µM (348 GPCRs [5]; [19]) [%]	activation at 10 µM (348 GPCRs [6]; [20]) [%]	activation at 10 µM (348 GPCRs [7]; [21]) [%]
-0.925	2.27	-3.77	-5.03	4.97	1.38	2.73	–	N#C[C@@]1(c2ccc3c(N)ncnn23)O[C@H](CO)[C@@H](O)[C@H]1O [GS441524]	–	–	–	–	–	–	–
-0.244	6.14	-1.79	-0.669	–	2.77	-2.41	5.36	NC(=O)c1nc(F)cnc1O [favipiravir, 6-fluoro-3-hydroxy-2-pyrazinecarboxamide]	–	–	–	–	–	–	–
-6.16	-9.47	1.42	-2.68	0.0147	-4.86	-2.66	–	CC(C)C(=O)OC[C@H]1O[C@@H](n2ccc(NO)nc2=O)[C@H](O)[C@@H]1O [molnupiravir]	–	–	–	–	–	–	–
–	–	–	–	–	–	–	–	CCC(CC)COC(=O)[C@H](C)N[P@](=O)(OC[C@H]1O[C@@](C#N)(c2ccc3c(N)ncnn23)[C@H](O)[C@@H]1O)Oc1ccccc1 [remdesivir]	0.971	4.18	-2.47	0.425	8.52	4.05	0.527
–	–	–	–	–	–	–	–	CC(C)OC(=O)[C@H](C)N[P@](=O)(OC[C@H]1O[C@@H](n2ccc(=O)[nH]c2=O)[C@](C)(F)[C@@H]1O)Oc1ccccc1 [sofosbuvir]	3.27	-12.7	-0.359	-2.89	0.966	-4.51	-4.3
